Patent US6525001B1, “Substituted pyrimidine and pyridine herbicides” (Mid-American Commercialization Corporation, priority 1997, dated 2003)

What was measured:
Type in all cases: in vivo
Set-up in all cases: key: 0 is no effect; 10 is complete control
[1] = tested on: blackgrass (Alopecurus myosuroides); assay: Test B pre-/postemergence
Outline: (§1)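 Compounds in a surfactant-containing, non-phytotoxic solvent blend are applied to freshly planted seed (preemergence) and, concurrently, to seedlings of 2 to 18 cm at 1–4 leaves (postemergence). Plants stay in the greenhouse twelve to sixteen days and are then scored visually from 0 (no effect) to 10 (complete control).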

[2] = tested on: cocklebur (Xanthium strumarium); assay: Test B pre-/postemergence
Outline: as §1

corn (Zea mays) = assay: Test B pre-/postemergence
Outline: as §1

[3] = tested on: crabgrass (Digitaria sanguinalis); assay: Test B pre-/postemergence
Outline: as §1

[4] = tested on: pigweed (Amaranthus retroflexus); assay: Test B pre-/postemergence
Outline: as §1

[5] = tested on: purple nutsedge (Cyperus rotundus); assay: Test B pre-/postemergence
Outline: as §1

rape (Brassica napus) = assay: Test B pre-/postemergence
Outline: as §1

soybean (Glycine max) = assay: Test B pre-/postemergence
Outline: as §1

[6] = tested on: sugar beet (Beta vulgaris); assay: Test B pre-/postemergence
Outline: as §1

[7] = tested on: velvetleaf (Abutilon theophrasti); assay: Test B pre-/postemergence
Outline: as §1

[8] = tested on: wheat (Triticum aestivum); assay: Test B pre-/postemergence
Outline: as §1

[9] = tested on: bamyardgrass (Echinochloa crus-galli); assay: Test B flood test; details: for Plant response rating, Barnyardgrass: Postemergence (flood test species)
Outline: (§2)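 Read-out is a visual response score from 0 (no effect) to 10 (complete control), assigned by comparison with untreated controls. Treatment was applied at the 2-leaf stage, and plants stayed in the greenhouse for twelve to sixteen days before scoring.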

[10] = tested on: duck salad (Heteranthera limosa); assay: Test B flood test; details: for Plant response rating, Ducksalad: Postemergence (flood test species)
Outline: as §2

rice (Oryza sativa) = assay: Test B flood test; details: for Plant response rating, Rice: Postemergence (flood test species)
Outline: as §2

[11] = tested on: smallflower flatsedge (Cyperus difformis); assay: Test B flood test; details: for Plant response rating, S. Flatsedge: Postemergence (flood test species)
Outline: as §2

[12] = Preemergence, Rate 62 g/ha, scale of 0 to 10
[13] = Rate 62 g/ha, Postemergence (flood test)
[14] = Rate 125 g/ha, Postemergence section (flood test species)

Cc1cnc(-c2ccc(C(F)(F)F)cc2)nc1C(=O)c1ccc(C(F)(F)F)cc1 [Compound 74]
Plant response rating, Blackgrass [1, 12]: 0 | Blackgrass plant response rating ([1]; Rate 62 g/ha, Postemergence): 0 | Blackgrass plant response rating ([1]; Rate 125 g/ha, Postemergence): 0 | Plant response rating, Blackgrass ([1]; Rate 125 g/ha, Preemergence): 0 | Plant response rating, Blackgrass ([1]; Rate 250 g/ha, Postemergence): 0 | Plant response rating, Blackgrass ([1]; Rate 250 g/ha, Preemergence): 0 | Plant response rating, Blackgrass ([1]; Rate 500 g/ha, Postemergence): 1 | Plant response rating, Blackgrass ([1]; Rate 500 g/ha, Preemergence): 0 | Plant response rating, Cocklebur [2, 12]: 0 | Cocklebur plant response rating ([2]; Rate 62 g/ha, Postemergence): 1 | Cocklebur plant response rating ([2]; Rate 125 g/ha, Postemergence): 5 | Plant response rating, Cocklebur ([2]; Rate 125 g/ha, Preemergence): 0 | Plant response rating, Cocklebur ([2]; Rate 250 g/ha, Postemergence): 5 | Plant response rating, Cocklebur ([2]; Rate 250 g/ha, Preemergence): 0 | Plant response rating, Cocklebur ([2]; Rate 500 g/ha, Postemergence): 5 | Plant response rating, Cocklebur ([2]; Rate 500 g/ha, Preemergence): 0 | Plant response rating, Corn (corn (Zea mays); [12]): 0 | Corn plant response rating (corn (Zea mays); Rate 62 g/ha, Postemergence): 1 | Corn plant response rating (corn (Zea mays); Rate 125 g/ha, Postemergence): 1 | Plant response rating, Corn (corn (Zea mays); Rate 125 g/ha, Preemergence): 0 | Plant response rating, Corn (corn (Zea mays); Rate 250 g/ha, Postemergence): 1 | Plant response rating, Corn (corn (Zea mays); Rate 250 g/ha, Preemergence): 0 | Plant response rating, Corn (corn (Zea mays); Rate 500 g/ha, Postemergence): 1 | Plant response rating, Corn (corn (Zea mays); Rate 500 g/ha, Preemergence): 0 | Plant response rating, Crabgrass [3, 12]: 0 | Crabgrass plant response rating ([3]; Rate 62 g/ha, Postemergence): 0 | Crabgrass plant response rating ([3]; Rate 125 g/ha, Postemergence): 0 | Plant response rating, Crabgrass ([3]; Rate 125 g/ha, Preemergence): 0 | Plant response rating, Crabgrass ([3]; Rate 250 g/ha, Postemergence): 1 | Plant response rating, Crabgrass ([3]; Rate 250 g/ha, Preemergence): 0 | Plant response rating, Crabgrass ([3]; Rate 500 g/ha, Postemergence): 3 | Plant response rating, Crabgrass ([3]; Rate 500 g/ha, Preemergence): 1 | Plant response rating, Redroot pigweed [4, 12]: 0 | Redroot pigweed plant response rating ([4]; Rate 62 g/ha, Postemergence): 2 | Redroot pigweed plant response rating ([4]; Rate 125 g/ha, Postemergence): 2 | Plant response rating, Redroot pigweed ([4]; Rate 125 g/ha, Preemergence): 0 | Plant response rating, Redroot pigweed ([4]; Rate 250 g/ha, Postemergence): 8 | Plant response rating, Redroot pigweed ([4]; Rate 250 g/ha, Preemergence): 0 | Plant response rating, Redroot pigweed ([4]; Rate 500 g/ha, Postemergence): 8 | Plant response rating, Redroot pigweed ([4]; Rate 500 g/ha, Preemergence): 0 | Plant response rating, Nutsedge [5, 12]: 0 | Nutsedge plant response rating ([5]; Rate 62 g/ha, Postemergence): 0 | Nutsedge plant response rating ([5]; Rate 125 g/ha, Postemergence): 0 | Plant response rating, Nutsedge ([5]; Rate 125 g/ha, Preemergence): 0 | Plant response rating, Nutsedge ([5]; Rate 250 g/ha, Postemergence): 0 | Plant response rating, Nutsedge ([5]; Rate 250 g/ha, Preemergence): 0 | Plant response rating, Nutsedge ([5]; Rate 500 g/ha, Preemergence): 0 | Plant response rating, Rape (rape (Brassica napus); [12]): 0 | Rape plant response rating (rape (Brassica napus); Rate 62 g/ha, Postemergence): 1 | Rape plant response rating (rape (Brassica napus); Rate 125 g/ha, Postemergence): 1 | Plant response rating, Rape (rape (Brassica napus); Rate 125 g/ha, Preemergence): 0 | Plant response rating, Rape (rape (Brassica napus); Rate 250 g/ha, Postemergence): 1 | Plant response rating, Rape (rape (Brassica napus); Rate 250 g/ha, Preemergence): 0 | Plant response rating, Rape (rape (Brassica napus); Rate 500 g/ha, Postemergence): 3 | Plant response rating, Rape (rape (Brassica napus); Rate 500 g/ha, Preemergence): 0 | Plant response rating, Soybean (soybean (Glycine max); [12]): 0 | Soybean plant response rating (soybean (Glycine max); Rate 62 g/ha, Postemergence): 2 | Soybean plant response rating (soybean (Glycine max); Rate 125 g/ha, Postemergence): 2 | Plant response rating, Soybean (soybean (Glycine max); Rate 125 g/ha, Preemergence): 0 | Plant response rating, Soybean (soybean (Glycine max); Rate 250 g/ha, Postemergence): 2 | Plant response rating, Soybean (soybean (Glycine max); Rate 250 g/ha, Preemergence): 0 | Plant response rating, Soybean (soybean (Glycine max); Rate 500 g/ha, Postemergence): 3 | Plant response rating, Soybean (soybean (Glycine max); Rate 500 g/ha, Preemergence): 0 | Plant response rating, Sugarbeets [6, 12]: 0 | Sugarbeets plant response rating ([6]; Rate 62 g/ha, Postemergence): 1 | Sugarbeets plant response rating ([6]; Rate 125 g/ha, Postemergence): 2 | Plant response rating, Sugarbeets ([6]; Rate 125 g/ha, Preemergence): 0 | Plant response rating, Sugarbeets ([6]; Rate 250 g/ha, Postemergence): 6 | Plant response rating, Sugarbeets ([6]; Rate 250 g/ha, Preemergence): 0 | Plant response rating, Sugarbeets ([6]; Rate 500 g/ha, Postemergence): 7 | Plant response rating, Sugarbeets ([6]; Rate 500 g/ha, Preemergence): 0 | Plant response rating, Velvetleaf [7, 12]: 0 | Velvetleaf plant response rating ([7]; Rate 62 g/ha, Postemergence): 1 | Velvetleaf plant response rating ([7]; Rate 125 g/ha, Postemergence): 1 | Plant response rating, Velvetleaf ([7]; Rate 125 g/ha, Preemergence): 0 | Plant response rating, Velvetleaf ([7]; Rate 250 g/ha, Postemergence): 2 | Plant response rating, Velvetleaf ([7]; Rate 250 g/ha, Preemergence): 0 | Plant response rating, Velvetleaf ([7]; Rate 500 g/ha, Postemergence): 2 | Plant response rating, Velvetleaf ([7]; Rate 500 g/ha, Preemergence): 0 | Plant response rating, Wheat [8, 12]: 0 | Wheat plant response rating ([8]; Rate 62 g/ha, Postemergence): 1 | Wheat plant response rating ([8]; Rate 125 g/ha, Postemergence): 1 | Plant response rating, Wheat ([8]; Rate 125 g/ha, Preemergence): 0 | Plant response rating, Wheat ([8]; Rate 250 g/ha, Postemergence): 1 | Plant response rating, Wheat ([8]; Rate 250 g/ha, Preemergence): 0 | Plant response rating, Wheat ([8]; Rate 500 g/ha, Postemergence): 2 | Plant response rating, Wheat ([8]; Rate 500 g/ha, Preemergence): 0 | Barnyardgrass plant response rating [9, 13]: 0 | Barnyardgrass plant response rating [9, 14]: 0 | Plant response rating, Barnyardgrass ([9]; Rate 250 g/ha): 0 | Plant response rating, Barnyardgrass ([9]; Rate 500 g/ha): 0 | Ducksalad plant response rating [10, 13]: 0 | Ducksalad plant response rating [10, 14]: 0 | Plant response rating, Ducksalad ([10]; Rate 250 g/ha): 0 | Plant response rating, Ducksalad ([10]; Rate 500 g/ha): 0 | Rice plant response rating (rice (Oryza sativa); [13]): 0 | Rice plant response rating (rice (Oryza sativa); [14]): 0 | Plant response rating, Rice (rice (Oryza sativa); Rate 250 g/ha): 0 | Plant response rating, Rice (rice (Oryza sativa); Rate 500 g/ha): 0 | S. Flatsedge plant response rating [11, 13]: 0 | S. Flatsedge plant response rating [11, 14]: 0 | Plant response rating, S. Flatsedge ([11]; Rate 250 g/ha): 0 | Plant response rating, S. Flatsedge ([11]; Rate 500 g/ha): 0
